Data as given in US20060067924A1, “Probiotic bacteria and methods” (priority 2003, published 2006).
“Also recorded” adds a separate entry of the source.

How the values were obtained:
[1] = pigs, 50 ppm, compared to controls; cited from earlier work
[2] = system: bacterial flora of the chicken ileum; assay: 16S rDNA clone library analysis of the ileal bacterial community of chickens fed diets with feed additives; format: in vivo
cecum flora = assay: 16S rDNA clone library analysis of the cecum flora, monensin treatment; format: in vivo, chicken; conditions: 28 d
[3] = system: Lachnospira multiparus-like organisms; conditions: monensin supplementation; cited from earlier work
[4] = system: bacterial community of the chicken ileum; assay: T-RFLP analysis (HaeIII) of amplified 16S rDNA from the ileum of chickens fed different diets; format: in vivo; conditions: for main bacterial composition present in TRFLP peaks in ileum: names in order of relative abundance of peaks; for Clostridiales, % peak areas / Lactobacillaceae, % peak areas: T-RFLP
Experimental: A comparative study of bacterial community of the chicken ileum was carried out using 16S rDNA gene analysis. The intestinal microbiota is part of a complex ecosystem. This study examined the effect of the growth promoting antibiotic, virginiamycin, and other commercial diets on the distribution and community structure of intestinal bacterial flora. Bacterial communities in the intestines of chickens were compared using terminal restriction fragment length polymorphism (T-RFLP) analysis targeting the 16S ribosomal DNA combining with 16S rDNA cloning library. The chickens were fed 4 different diets including a commercial corn-soy diet, corn-soy plus growth promotant diet, corn-soy plus monensin, and a wheat diet. A group was also administrated a probiotic at 1 day age and fed a corn-soy diet. After feeding of the birds with the experimental diets, the differences in the bacterial community structures in the ileum were detected in the form of different profiles of terminal restriction fragments (T-RFs). Some of the T-RFs were commonly distributed, i.e., they were found in all samples, while others varied in distribution and correlated with specific diets. Significant differences were found between the control group (corn-soy diet) and the experimental groups by pairwise-analyzing the T-RFs=profiles.
The bacterial populations are identified using genetic analysis of the 16S RNA gene by GeneScan-Terminal Restriction Fragment Length Polymorphism (T-RFLP) using 16S universal primers and cloning and DNA sequencing of 16S PCR products. GeneScan T-RFLP requires the following steps: labeling the PCR product by using labeled primers; digesting the PCR product with restriction enzymes; separating fragments on gel; and detecting terminal fragments. The sizes of terminal fragments can be calculated based on DNA sequence analysis.
In some experiments, the PCR products were loaded onto a gel from which bands were cut and eluted in 35 μl of sterile filtered distilled water using a QIAquick gel extraction kit (Qiagen, Chatsworth, Calif.). The concentrations of the fluorescently labeled PCR products were measured on a spectrophotometer (DU Series 500, Beckman, Fullerton, Calif.). About 100 ng of purified PCR products was digested in a 10 μl volume for 4 hours at 37 C with 10 U of HaeIII (isoschizomer BsuRI; Fermentas, MBI). Restriction digests were desalted with the QIAquick Nucleotide Removal Kit (Qiagen). The fluorescently labeled terminal restriction fragments (T-RFs) were analyzed by electrophoresis on an automatic sequence analyzer (ABI PRISM 310 DNA Sequencer; PE Biosystems, Foster City, Calif.) in GeneScan mode. Aliquots (2 ul) of T-RFs were mixed with 2 μl of deionized formamide, 0.5 μl of DNA fragment length size standard GS-500 (PE Biosystems). The T-RF mixture was denatured at 94° C. for 5 min and immediately chilled on ice prior to electrophoresis. After electrophoresis, the lengths of fluorescently labeled T-RFs were determined by comparison with internal standards by using GeneScan software (ABI). For each sample, peaks over a threshold of 50 units above background fluorescence were analyzed by manually aligning fragments to the size standard. To avoid detection of primers and uncertainties of size determination, terminal fragments smaller than 35 bp and larger than 525 bp were excluded from the analysis. Reproducibility of patterns was confirmed for repeated T-RFLP analysis of 16S gene amplification using the same DNA extracts from pooled samples.
The information index (Shannon and Weaver (1963) “The Mathematical Theory of Communication,” p. 117, University of Illinois Press, Urbana, Ill.) was used to initially evaluate the diversity of the microbial communities. [formula] Where n is possible categories in a data set and that their proportions are pi, . . . , pn. The H values are the measure of diversity for this system. […]

[5] = ileum, 7 days of age, 16S rDNA clone library
[6] = ileum, 28 days of age, 16S rDNA clone library
[7] = vs control fed the same feed without the antibiotic

## virginiamycin
[1]
  enhancement in feed conversion: 7%
  improvement in growth rate: 10%
[2]; 28 and 49 days of age
  Lactobacillus species in the ileum vs controls: significantly fewer

## CC[C@@]1([C@@H]2O[C@@H]([C@H]3O[C@@](O)(CO)[C@H](C)C[C@@H]3C)C[C@@H]2C)CC[C@H]([C@]2(C)CC[C@]3(C[C@H](O)[C@@H](C)[C@@H]([C@@H](C)[C@@H](OC)[C@H](C)C(=O)O)O3)O2)O1 [Monensin, monensin]
[2]; 3 d
  ileum flora: Clostridium spp.: 1 [17] %
  ileum flora: L. crispatus: 1 [4] %
  ileum flora: L. salivarius: 1%
  ileum: Clostridiaceae: 2 [17] %
  ileum: Enterococcus: 9 [3] %
  ileum: Lactobacillus spp.: 3 [60] %
  ileum: α-Proteobacteria: 1 [1] %
  ileum: β-Proteobacteria: 3 [5] %
  ileum: δ-Probeobacteria: 82 [2] %
[2]; 7 d
  ileum flora: C. irregularis: 45%
  ileum flora: C. lituseburense: 24%
  ileum flora: Clostridium spp.: 13 [1] %
  ileum flora: L. acidophilus: 4 [57] %
  ileum flora: L. crispatus: 4 [1] %
  ileum flora: L. reuteri: 3%
  ileum: Clostridiaceae: 84 [1] %
  ileum: Enterococcus: 3 [16] %
  ileum: Lactobacillus spp.: 11 [64] %
[2]; 14 d
  ileum flora: C. lituseburense: 31%
  ileum flora: L. crispatus: 17 [8] %
  ileum: Bifidobacter: 2%
  ileum: Clostridiaceae: 44 [7] %
  ileum: Enterococcus: 33 [13] %
  ileum: Lactobacillus spp.: 21 [64] %
[2]; 21 d
  ileum flora: C. irregularis: 19%
  ileum flora: C. lituseburense: 22%
  ileum flora: L. crispatus: 19 [3] %
  ileum flora: L. salivarius: 7 [5] %
  ileum: Bacteroides: 2 [3] %
  ileum: Clostridiaceae: 47 [9] %
  ileum: Enterococcus: 11 [3] %
  ileum: Lactobacillus spp.: 27 [66] %
[2]; 28 d
  ileum flora: C. irregularis: 53%
  ileum flora: C. lituseburense: 7%
  ileum flora: Clostridium spp.: 1 [6] %
  ileum flora: L. crispatus: 17 [75] %
  ileum flora: L. reuteri: 11 [7] %
  ileum flora: L. salivarius: 2 [2] %
  ileum: Bacillus: 1%
  ileum: Clostridiaceae: 62 [7] %
  ileum: Enterococcus: 1 [3] %
  ileum: Lactobacillus spp.: 32 [88] %
  ileum: Streptococcus: 1 [1] %
[2]; 49 d
  ileum flora: C. irregularis: 3%
  ileum flora: C. lituseburense: 42%
  ileum flora: Clostridium spp.: 1 [19] %
  ileum flora: L. aviaries: 16%
  ileum flora: L. crispatus: 20 [36] %
  ileum flora: L. reuteri: 5 [1] %
  ileum flora: L. salivarius: 3 [28] %
  ileum: Bacillus: 5 [4] %
  ileum: Bacteroides: 1 [1] %
  ileum: Clostridiaceae: 46 [19] %
  ileum: Enterococcus: 5 [2] %
  ileum: Lactobacillus spp.: 45 [70] %
  ileum: Streptococcus: 5%
[2]; [5]
  Clostridiales, % of seq: 82.4%
  Enterococcus/Streptococcus, % of seq: 2.7%
  Lactobacillaceae, % of seq: 12.9%
  Proteobacteria α, % of seq: 1.35%
[2]; [6]
  Bacillaceae, % of seq: 1.05%
  Clostridiales, % of seq: 63.2%
  Enterococcus/Streptococcus, % of seq: 2.1%
  Lactobacillaceae, % of seq: 31.6%
  Proteobacteria α, % of seq: 2.1%
[2]; [7]
  clostridial sequences: increased
  overall numbers of Lactobacillus sequences: reduced
Cecum flora
  cecum flora: Actinobacterium: 43%
  cecum flora: Bacteroides: 1%
  cecum flora: Clostridium spp.: 27%
  cecum flora: Eubacterium: 12%
  cecum flora: Lactobacillus spp.: 6%
  cecum flora: Ruminococcus: 10%
[3]
  decrease of relative numbers of Lachnospira multiparus-like organisms: about 2 fold
[4]; 3 day
  main bacterial composition present in TRFLP peaks in ileum: Enterococcus sp; also recorded: E. coli
[4]; 7 day
  main bacterial composition present in TRFLP peaks in ileum: C. irregularis; also recorded: C. lituseburense; also recorded: L. acidophilus
[4]; 14 day
  main bacterial composition present in TRFLP peaks in ileum: C. lituseburense; also recorded: C. irregularis; also recorded: Clostridium sp; also recorded: L. crispatus
[4]; 21 day
  main bacterial composition present in TRFLP peaks in ileum: C. irregularis; also recorded: C. lituseburense; also recorded: L. crispatus
[4]; 28 day
  main bacterial composition present in TRFLP peaks in ileum: C. irregularis; also recorded: L. crispatus; also recorded: L. reuteri
[4]; 49 day
  main bacterial composition present in TRFLP peaks in ileum: C. lituseburense; also recorded: L. crispatus
[4]; chicken ileum
  inhibition of C. irregularis: not inhibited
[4]; ileum, 7 days of age
  Clostridiales, % peak areas: 92.89%
  Lactobacillaceae, % peak areas: 7.1%
[4]; ileum, 28 days of age
  Clostridiales, % peak areas: 73.2%
  Lactobacillaceae, % peak areas: 27.2%
[4]; ileum, whole group (control 73.22%)
  relative peak areas of Lactobacillus: 19.25%
